This note sets out measurements from US8394786B2, “Quinazoline derivatives” (Janssen Pharmaceutica N.V., priority 2003, dated 2013).

Each structure is given as a SMILES string.

One data set has as its target EGFR (Homo sapiens, UniProt P00533). Put plainly: In vitro inhibition of EGFR, Flash Plate or glass-fiber filter technology (C2). The arrangement: 0.5 μg EGFR-kinase domain/well. Type of data set: biochemical. To be noted: EGFR-kinase domain, 5.0 μM unlabeled ATP, read-out: Kinase activity.(C2): pIC50 (converted). An outline of the steps: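 EGFR kinase domain (0.5 μg/well) phosphorylated poly(GT) with 5.0 μM ATP plus AT^33P, dose response 1·10^−6 to 1·10^−10 M. Flash Plate: biotin-poly(GT), Tris pH 8.0, 30° C, 60 min, scintillation counting. Filter: Tris pH 7.5 with MnCl2, 25° C, 10 min, 33P counted on glass-fiber filter by phosphorimaging.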

A further data set has as its system SKOV3 cells. Put plainly: Serum starved proliferation assay on the ovarian carcinoma SKOV3 cells (C3). Type of data set: cell-based. To be noted: EGF stimulated (100 ng/ml, 72 hours, serum free) or 72 hours with compounds, MTT cell viability assay; for IC50: Homo sapiens, SK-OV-3, 72 h, read-out: SKOV3 cell (C3): pIC50 (converted). An outline of the steps:
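SKOV3 cells grown 24 h in 10% FCS, then treated with compound under serum-free conditions (37 °C, 5% CO2) and stimulated 72 h with EGF at 100 ng/ml final; read-out by MTT viability. Alternative format: compound for 72 h after the same 24 h FCS step, also by MTT.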
(Tetrazolium dyes change colour on reduction, which living cells bring about.)

Sequence of EGFR (P00533 712-979 limits assumed): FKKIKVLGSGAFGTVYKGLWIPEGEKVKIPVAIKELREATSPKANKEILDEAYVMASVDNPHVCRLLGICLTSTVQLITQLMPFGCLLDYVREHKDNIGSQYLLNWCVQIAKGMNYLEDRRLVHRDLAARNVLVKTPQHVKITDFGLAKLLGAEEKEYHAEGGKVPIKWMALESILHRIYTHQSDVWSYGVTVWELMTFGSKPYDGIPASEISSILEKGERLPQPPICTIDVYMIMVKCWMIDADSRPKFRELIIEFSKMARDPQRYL

By melting point is commonly meant the temperature, or range, at which the solid turns liquid. The compound `COc1cc2ncnc3c2cc1OCCNC(=O)C(C(C)C)NC(=O)Cc1ccc(Cl)cc1N3` (stereo not drawn) [Compound 66, 4,6-ethanediylidene-8H-pyrimido[4,5-b][6,1,9,12]benzoxatriazacyclohexadecine-11,14-dione, 18-chloro-9,10,12,13,15,20-hexahydro-21-methoxy-12-(1-methylethyl)-] yielded a melting point of 335 °C. The IC50 on EGFR is 79.4 nM. In addition, in the data set on SKOV3 cells, the IC50 was 10 nM.
Compound `COc1cc2ncnc3c2cc1OCCNC(=O)CNC(=O)Cc1ccc(Cl)cc1N3` [Compound 69, 4,6-ethanediylidene-8H-pyrimido[4,5-b][6,1,9,12]benzoxatriazacyclohexadecine-11,14-dione, 18-chloro-9,10,12,13,15,20-hexahydro-21-methoxy-] showed a melting point of 292 °C. The IC50 at EGFR is 50.1 nM. The IC50 in the data set with SKOV3 cells is 63.1 nM.
Regarding `COc1cc2ncnc3c2cc1OCCCNC(=O)CCNCc1ccc(Cl)cc1N3` [Compound 70, 4,6-ethanediylidenepyrimido[4,5-b][6,1,10,14]benzoxatriazacycloheptadecin-12(13H)-one, 19-chloro-8,9,10,11,14,15,16,21-octahydro-22-methoxy-], the melting point lay within 236.4 to 237.3 °C. The IC50 at EGFR was 10 nM. Moreover, the IC50 in the data set with SKOV3 cells is 3160 nM.
On to `COc1cc2ncnc3c2cc1OCCNC(=O)C1CCCN1Cc1ccc(Cl)cc1N3` (stereo not drawn) [Compound 71, 4,6-ethanediylidenepyrimido[4,5-b]pyrrolo[2,1-k][6,1,9,12]benzoxatriazacyclopentadecin-11(8H)-one, 19-chloro-9,10,11a,12,13,14,16,21-octahydro-22-methoxy-], for which the melting point lay in the range of 261.2 to 265 °C. Further, on EGFR, the IC50 is 31.6 nM. Besides, the “SKOV3 cell (C3): pIC50” value in the data set with SKOV3 cells came out at 5.5.
Regarding `COc1cc2ncnc3c2cc1OCCNC(=O)CN(C)Cc1ccc(Cl)cc1N3` [Compound 72, 4,6-ethanediylidenepyrimido[4,5-b][6,1,9,12]benzoxatriazacyclopentadecin-11(8H)-one, 17-chloro-9,10,12,13,14,19-hexahydro-20-methoxy-13-methyl-], the melting point was 288.5 to 290.5 °C. Moreover, on EGFR, the IC50 is 158 nM. In addition, the IC50 in the data set with SKOV3 cells was 10000 nM.
Turning to `COc1cc2ncnc3c2cc1OCCNC(=O)CNCc1ccc(Cl)cc1N3` [Compound 73, 4,6-ethanediylidenepyrimido[4,5-b][6,1,9,12]benzoxatriazacyclopentadecin-11(8H)-one, 17-chloro-9,10,12,13,14,19-hexahydro-20-methoxy-], the melting point lay in the range of 294.2 to 295.2 °C. In addition, the IC50 at EGFR is 39.8 nM. In addition, the IC50 in the data set with SKOV3 cells is 3980 nM.
Regarding `COc1cc2ncnc3c2cc1OCCCNC(=O)CN(C)Cc1ccc(Cl)cc1N3` [Compound 74, 4,6-ethanediylidene-12H-pyrimido[4,5-b][6,1,10,13]benzoxatriazacyclohexadecin-12-one, 18-chloro-8,9,10,11,13,14,15,20-octahydro-21-methoxy-14-methyl-], the melting point is 240 to 240.3 °C. For the same compound, the IC50 at EGFR was 25.1 nM. Further, the IC50 in the data set with SKOV3 cells was 1000 nM.
As to `COc1cc2ncnc3c2cc1OCCNC(=O)CCNCc1ccc(Cl)cc1N3` [Compound 75, 4,6-ethanediylidene-8H-pyrimido[4,5-b][6,1,9,13]benzoxatriazacyclohexadecin-11(12H)-one, 18-chloro-9,10,13,14,15,20-hexahydro-21-methoxy-], the melting point was in the range of 254.4 to 256.5 °C. For the same compound, at EGFR, the IC50 was 63.1 nM. In the data set on SKOV3 cells, the IC50 was 6310 nM.
Regarding `COc1cc2ncnc3c2cc1OCCCNC(=O)C1CCC(=O)N1Cc1ccc(Cl)cc1N3` (stereo not drawn) [Compound 76, 4,6-etheno-8H-pyrimido[4,5-b]pyrrolo[2,1-l][6,1,10,13]benzoxatriazacyclohexadecine-12,15(14H)-dione, 20-chloro-9,10,11,12a,13,17,22-heptahydro-23-methoxy-], the melting point is 350.5 to 352.5 °C. The IC50 at EGFR was 25.1 nM. Besides, in the data set with SKOV3 cells, the IC50 was 200 nM.
For `COc1cc2ncnc3c2cc1OCCNC(=O)C1CCCN1Cc1cc(F)c(Cl)cc1N3` (stereo not drawn) [Compound 78, 4,6-ethanediylidenepyrimido[4,5-b]pyrrolo[2,1-k][6,1,9,12]benzoxatriazacyclopentadecin-11(8H)-one, 19-chloro-18-fluoro-9,10,11a,12,13,14,16,21-octahydro-22-methoxy-] the same measures were 261.4 to 264 °C, 31.6 nM and 316 nM.
Compound `COc1cc2ncnc3c2cc1OCCNC(=O)CN(C)Cc1cc(F)c(Cl)cc1N3` [Compound 79, 4,6-ethanediylidenepyrimido[4,5-b][6,1,9,12]benzoxatriazacyclopentadecin-11(8H)-one, 17-chloro-16-fluoro-9,10,12,13,14,19-hexahydro-20-methoxy-13-methyl-] gave a melting point of 306.3 to 307.4 °C. Further, at EGFR, the IC50 was 631 nM. Besides, the IC50 in the data set with SKOV3 cells is 10000 nM.
For `COc1cc2ncnc3c2cc1OCCCNC(=O)CN(C)Cc1cc(F)c(Cl)cc1N3` [Compound 80, 4,6-ethanediylidene-12H-pyrimido[4,5-b][6,1,10,13]benzoxatriazacyclohexadecin-12-one, 18-chloro-17-fluoro-8,9,10,11,13,14,15,20-octahydro-21-methoxy-14-methyl-], the melting point lay within 260.4 to 261.1 °C. Moreover, the IC50 on EGFR is 20 nM. For the same compound, in the data set with SKOV3 cells, the IC50 is 63.1 nM.
As to `COc1cc2ncnc3c2cc1OCCNC(=O)CNCc1cc(F)c(Cl)cc1N3` [Compound 81, 4,6-ethanediylidenepyrimido[4,5-b][6,1,9,12]benzoxatriazacyclopentadecin-11(8H)-one, 17-chloro-16-fluoro-9,10,12,13,14,19-hexahydro-20-methoxy-], the melting point was 304.2 to 304.4 °C. Besides, the IC50 at EGFR is 251 nM. Also, the IC50 in the data set on SKOV3 cells is 251 nM.
The compound `COc1cc2ncnc3c2cc1OCCCNC(=O)CNCc1cc(F)c(Cl)cc1N3` [Compound 82, 4,6-ethanediylidene-12H-pyrimido[4,5-b][6,1,10,13]benzoxatriazacyclohexadecin-12-one, 18-chloro-17-fluoro-8,9,10,11,13,14,15,20-octahydro-21-methoxy-] registered a melting point of 311 to 311.9 °C. Also, at EGFR, the IC50 was 20 nM. Besides, the IC50 in the data set on SKOV3 cells was 79.4 nM.
The compound `COc1cc2ncnc3c2cc1OCCNC(=O)C1CCCN1Cc1ccc(Cl)cc1N3` (stereo not drawn) [Compound 83, 4,6-ethanediylidenepyrimido[4,5-b]pyrrolo[2,1-k][6,1,9,12]benzoxatriazacyclopentadecin-11(8H)-one, 19-chloro-9,10,11a,12,13,14,16,21-octahydro-22-methoxy-] returned a melting point of 262 to 262.8 °C. For the same compound, on EGFR, the IC50 is 501 nM. The “SKOV3 cell (C3): pIC50” value with SKOV3 cells is listed as 6.1.
The compound `COc1cc2ncnc3c2cc1OCCCNC(=O)CNCc1ccc(Cl)cc1N3` [Compound 99, 4,6-ethanediylidene-12H-pyrimido[4,5-b][6,1,10,13]benzoxatriazacyclohexadecin-12-one, 18-chloro-8,9,10,11,13,14,15,20-octahydro-21-methoxy-] yielded a melting point of 304.6 to 304.8 °C. Also, the IC50 at EGFR was 25.1 nM. Also, the IC50 in the data set with SKOV3 cells is 200 nM.
In turn, `COc1cc2ncnc3c2cc1OCCCCNC(=O)C1CCCN1Cc1ccc(Cl)cc1N3` (stereo not drawn) [Compound 100, 4,6-ethanediylidenepyrimido[4,5-b]pyrrolo[2,1-m][6,1,11,14]benzoxatriazacycloheptadecin-13(8H)-one, 21-chloro-9,10,11,12,13a, 14,15,16,18,23-decahydro-24-methoxy-] came in with a melting point of 226.3 to 227.7 °C. In addition, at EGFR, the IC50 is 7.94 nM. Further, the IC50 with SKOV3 cells is 126 nM.
The compound `COc1cc2ncnc3c2cc1OCCCNCCN(C)Cc1ccc(Cl)cc1N3` [Compound 114, 4,6-ethanediylidene-8H-pyrimido[4,5-b][6,1,10,13]benzoxatriazacyclohexadecine, 18-chloro-9,10,11,12,13,14,15,20-octahydro-21-methoxy-14-methyl-] had a melting point of 202.8 to 203.6 °C. Moreover, the IC50 at EGFR is 10 nM. Besides, in the data set on SKOV3 cells, the IC50 was 39.8 nM.
The like results for `COc1cc2ncnc3c2cc1OCCCCNCCN(C)Cc1ccc(Cl)cc1N3` [Compound 115, 4,6-ethanediylidenepyrimido[4,5-b][6,1,11,14]benzoxatriazacycloheptadecine, 19-chloro-8,9,10,11,12,13,14,15,16,21-decahydro-22-methoxy-15-methyl-] were, in that order, 196.9 to 197.8 °C, 6.31 nM and 126 nM.
Take `COc1cc2ncnc3c2cc1OCCNCCN(C)Cc1ccc(Cl)cc1N3` [Compound 116, 4,6-ethanediylidenepyrimido[4,5-b][6,1,9,12]benzoxatriazacyclopentadecine, 17-chloro-8,9,10,11,12,13,14,19-octahydro-20-methoxy-13-methyl-]: the melting point lay within 195.8 to 196.6 °C. For the same compound, on EGFR, the IC50 is 200 nM. In addition, the IC50 in the data set with SKOV3 cells is 63.1 nM.
